ChEMBL document CHEMBL1201862, “PubChem BioAssay data set” (2004)
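Each compound was tested at five concentrations against cells in 96-well plates for 48 hours. Abbreviation: GI50, concentration required for 50% inhibition of growth.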 Activity calls are given as the source filed them. No stated cut-off is given here; in the data, active = GI50 up to about 1.1 µM and inactive = higher.

Assays:
Test in all cases: NCI anticancer screen, dose series, 48 h
SK-MEL-5 = tested on: SK-MEL-5
SK-MEL-28 = tested on: SK-MEL-28
LOX IMVI = tested on: LOX IMVI
RXF 393 = tested on: RXF 393
HOP-18 = tested on: HOP-18
SF-539 = tested on: SF-539
EKVX = tested on: EKVX
SN12C = tested on: SN12C
SK-OV-3 = tested on: SK-OV-3
OVCAR-3 = tested on: OVCAR-3
ACHN = tested on: ACHN
HCT-15 = tested on: HCT-15
M19-MEL = tested on: M19-MEL
U-251 = tested on: U-251
A498 = tested on: A498
786-0 = tested on: 786-0
IGROV-1 = tested on: IGROV-1
NCI/ADR-RES = tested on: NCI/ADR-RES
COLO 205 = tested on: COLO 205
MDA-MB-435 = tested on: MDA-MB-435
T47D = tested on: T47D
NCI-H460 = tested on: NCI-H460
OVCAR-4 = tested on: OVCAR-4
UO-31 = tested on: UO-31
HL-60 = tested on: HL-60
HOP-92 = tested on: HOP-92
HCC 2998 = tested on: HCC 2998
XF498 = tested on: XF498
MCF7 = tested on: MCF7
NCI-H522 = tested on: NCI-H522
NCI-H226 = tested on: NCI-H226
MDA-MB-231 = tested on: MDA-MB-231
SNB-19 = tested on: SNB-19
RPMI-8226 = tested on: RPMI-8226
UACC-62 = tested on: UACC-62
HOP-62 = tested on: HOP-62
PC-3 = tested on: PC-3
TK-10 = tested on: TK-10
SW-620 = tested on: SW-620
OVCAR-5 = tested on: OVCAR-5
SNB-75 = tested on: SNB-75
SK-MEL-2 = tested on: SK-MEL-2
UACC-257 = tested on: UACC-257
K562 = tested on: K562
KM-20L2 = tested on: KM-20L2
DMS-273 = tested on: DMS-273
BT-549 = tested on: BT-549
OVCAR-8 = tested on: OVCAR-8
SR = tested on: SR
CAKI-1 = tested on: CAKI-1
Hs-578T = tested on: Hs-578T
DMS-114 = tested on: DMS-114
HT-29 = tested on: HT-29
DU-145 = tested on: DU-145
SF-295 = tested on: SF-295
HCT-116 = tested on: HCT-116
MOLT-4 = tested on: MOLT-4
NCI-H23 = tested on: NCI-H23
M14 = tested on: M14
DLD-1 = tested on: DLD-1
SF-268 = tested on: SF-268
SNB-78 = tested on: SNB-78
A549 = tested on: A549
CCRF-CEM = tested on: CCRF-CEM
KM12 = tested on: KM12
Malme-3M = tested on: Malme-3M
LXFL 529 = tested on: LXFL 529

COc1ccc(CC2C(=O)NC(C)C(=O)N(C)C3C(=O)N(C)C(Cc4ccc(O)c(c4)Oc4ccc(cc4)C3O)C(=O)NC(C)C(=O)NC(C)C(=O)N2C)cc1 (stereo not drawn)
GI50 (SK-MEL-5): 7.46 nM (active) | GI50 (SK-MEL-28): 2.23 nM (active) | GI50 (LOX IMVI): 2.25 nM (active) | GI50 (RXF 393): 39.6 nM (active) | GI50 (HOP-18): 1.95 nM (active) | GI50 (SF-539): 13.6 nM (active) | GI50 (EKVX): 26.1 nM (active) | GI50 (SN12C): 18 nM (active) | GI50 (SK-OV-3): 23.6 nM (active) | GI50 (OVCAR-3): 11.3 nM (active) | GI50 (ACHN): 89.1 nM (active) | GI50 (HCT-15): 658 nM | GI50 (M19-MEL): 13 nM (active) | GI50 (U-251): 1.24 nM (active) | GI50 (A498): 22 nM (active) | GI50 (786-0): 15 nM (active) | GI50 (IGROV-1): 16.2 nM (active) | GI50 (NCI/ADR-RES): 212 nM (active) | GI50 (COLO 205): 20.6 nM (active) | GI50 (MDA-MB-435): < 10 nM (active) | GI50 (T47D): < 10 nM (active) | GI50 (NCI-H460): 16.7 nM (active) | GI50 (OVCAR-4): 6.64 nM (active) | GI50 (UO-31): 824 nM (active) | GI50 (HL-60): 3.08 nM (active) | GI50 (HOP-92): 13.7 nM (active) | GI50 (HCC 2998): 39.1 nM (active) | GI50 (XF498): 13.1 nM (active) | GI50 (MCF7): 12.5 nM (active) | GI50 (NCI-H522): 12.5 nM (active) | GI50 (NCI-H226): 4.59 nM (active) | GI50 (MDA-MB-231): < 10 nM (active) | GI50 (SNB-19): 3.92 nM (active) | GI50 (RPMI-8226): 14 nM (active) | GI50 (UACC-62): 13.8 nM (active) | GI50 (HOP-62): 28.4 nM (active) | GI50 (PC-3): 10 nM (active) | GI50 (TK-10): 336 nM (active) | GI50 (SW-620): 18.1 nM (active) | GI50 (OVCAR-5): 30.3 nM (active) | GI50 (SNB-75): 13.7 nM (active) | GI50 (SK-MEL-2): 12.5 nM (active) | GI50 (UACC-257): 7.1 nM (active) | GI50 (K562): 17.9 nM (active) | GI50 (KM-20L2): 24.6 nM (active) | GI50 (DMS-273): 12.3 nM (active) | GI50 (BT-549): < 10 nM (active) | GI50 (OVCAR-8): 21 nM (active) | GI50 (SR): < 10 nM (active) | GI50 (CAKI-1): 51.2 nM (active) | GI50 (Hs-578T): 10 nM (active) | GI50 (DMS-114): 1.45 nM (active) | GI50 (HT-29): 17.8 nM (active) | GI50 (DU-145): < 10 nM (active) | GI50 (SF-295): 13.8 nM (active) | GI50 (HCT-116): 1.81 nM (active) | GI50 (MOLT-4): 16.2 nM (active) | GI50 (NCI-H23): 16 nM (active) | GI50 (M14): 27.5 nM (active) | GI50 (DLD-1): 321 nM (active) | GI50 (SF-268): 12.5 nM (active) | GI50 (SNB-78): 1.88 nM (active) | GI50 (A549): 35.3 nM (active) | GI50 (CCRF-CEM): 1.3 nM (active) | GI50 (KM12): 2.15 nM (active) | GI50 (Malme-3M): 17.1 nM (active)

COC(=O)C(=NNc1ccccc1[N+](=O)[O-])C(=O)OC
GI50 (SK-MEL-28): > 100000 nM (inactive) | GI50 (LOX IMVI): > 100000 nM (inactive) | GI50 (RXF 393): > 100000 nM (inactive) | GI50 (HOP-18): > 100000 nM (inactive) | GI50 (SF-539): > 100000 nM (inactive) | GI50 (EKVX): > 100000 nM (inactive) | GI50 (SN12C): > 100000 nM (inactive) | GI50 (SK-OV-3): > 100000 nM (inactive) | GI50 (ACHN): > 100000 nM (inactive) | GI50 (M19-MEL): > 100000 nM (inactive) | GI50 (U-251): > 100000 nM (inactive) | GI50 (A498): > 100000 nM (inactive) | GI50 (786-0): > 100000 nM (inactive) | GI50 (IGROV-1): > 100000 nM (inactive) | GI50 (COLO 205): > 100000 nM (inactive) | GI50 (NCI-H460): > 100000 nM (inactive) | GI50 (OVCAR-4): 88100 nM (inactive) | GI50 (HL-60): > 100000 nM (inactive) | GI50 (HOP-92): 24100 nM (inactive) | GI50 (HCC 2998): > 100000 nM (inactive) | GI50 (XF498): 41200 nM (inactive) | GI50 (NCI-H522): > 100000 nM (inactive) | GI50 (NCI-H226): > 100000 nM (inactive) | GI50 (SNB-19): > 100000 nM (inactive) | GI50 (HOP-62): > 100000 nM (inactive) | GI50 (TK-10): > 100000 nM (inactive) | GI50 (SW-620): > 100000 nM (inactive) | GI50 (OVCAR-5): > 100000 nM (inactive) | GI50 (SK-MEL-2): > 100000 nM (inactive) | GI50 (UACC-257): > 100000 nM (inactive) | GI50 (K562): > 100000 nM (inactive) | GI50 (KM-20L2): > 100000 nM (inactive) | GI50 (DMS-273): > 100000 nM (inactive) | GI50 (OVCAR-8): > 100000 nM (inactive) | GI50 (SR): > 100000 nM (inactive) | GI50 (CAKI-1): > 100000 nM (inactive) | GI50 (HT-29): > 100000 nM (inactive) | GI50 (SF-295): > 100000 nM (inactive) | GI50 (HCT-116): > 100000 nM (inactive) | GI50 (MOLT-4): > 100000 nM (inactive) | GI50 (NCI-H23): > 100000 nM (inactive) | GI50 (SF-268): > 100000 nM (inactive) | GI50 (A549): > 100000 nM (inactive) | GI50 (CCRF-CEM): > 100000 nM (inactive) | GI50 (KM12): > 100000 nM (inactive) | GI50 (Malme-3M): > 100000 nM (inactive) | GI50 (LXFL 529): > 100000 nM (inactive)
